Paper PMC3371641 (SAR and QSAR in Environmental Research, 2011)

Molecular target: T1, cytochrome P450 enzyme 1A2 (CYP1A2) (Homo sapiens, UniProt P05177)
T1 sequence (P05177 2-516): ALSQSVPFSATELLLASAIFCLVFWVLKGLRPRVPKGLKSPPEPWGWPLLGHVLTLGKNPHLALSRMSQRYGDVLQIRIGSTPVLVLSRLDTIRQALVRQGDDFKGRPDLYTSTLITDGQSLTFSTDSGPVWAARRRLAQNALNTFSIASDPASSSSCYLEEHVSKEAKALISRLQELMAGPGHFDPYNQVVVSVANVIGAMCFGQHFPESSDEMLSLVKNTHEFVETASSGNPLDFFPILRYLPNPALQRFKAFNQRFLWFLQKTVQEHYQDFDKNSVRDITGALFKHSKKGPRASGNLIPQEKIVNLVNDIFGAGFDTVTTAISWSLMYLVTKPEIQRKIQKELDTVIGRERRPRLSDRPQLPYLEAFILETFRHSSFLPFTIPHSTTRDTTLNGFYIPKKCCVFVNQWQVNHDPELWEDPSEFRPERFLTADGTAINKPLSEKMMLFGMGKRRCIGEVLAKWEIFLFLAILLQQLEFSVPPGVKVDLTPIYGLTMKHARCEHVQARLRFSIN
Assay: enzyme inhibition assay, method reported earlier
Assay type: biochemical
Conditions: not given

SMILES	IC50 [nM]
CCC#Cc1ccc2ccc3cccc4ccc1c2c34 [1EEP, 1-butynylpyrene]	430
CC#Cc1ccc2c(ccc3ccccc32)c1 [2MEPHEN, 2-(1-propynyl)phenanthrene]	600
C#CCOc1ccc(-c2ccccc2)cc1 [4BIPHPE, 4-biphenylpropargyl ether]	1550
C#CCOc1ccc2c(C)cc(=O)oc2c1 [4M7CPE, 4-methyl-7-coumarinpropargyl ether]	2010
C#CCOc1ccc2c(C(F)(F)F)cc(=O)oc2c1 [4TFM7CPE, 4-(trifluoromethyl)-7-coumarinpropargyl ether]	700
C#CCOc1ccc(-c2cc(=O)c3ccccc3o2)cc1 [4′FPE, 4′-flavonepropargyl ether]	1270
C#CCOc1ccc(-c2cc(=O)c3ccc4ccccc4c3o2)cc1 [4′αNFPE, α-naphthoflavone-4′-propargyl ether]	260
C#CCOc1cccc2oc(-c3ccccc3)cc(=O)c12 [5FPE, 5-flavonepropargyl ether]	380
C#CCOc1ccc2oc(-c3ccccc3)cc(=O)c2c1 [6FPE, 6-flavonepropargyl ether]	940
C#CCOc1ccc2c(c1)OC(c1ccccc1)CC2=O (stereo not drawn) [7FLAVANONEPE, 7FlavanonePE]	970
C#CCOc1ccc2c(=O)cc(-c3ccccc3)oc2c1 [7FPE, 7-flavonepropargyl ether]	390

Same assay, conditions: read-out: EI

SMILES	IC50 [nM]
C#CCOCc1ccc(-c2ccccc2)cc1 [4BIPHMPE, 4-biphenyl methyl propargyl ether]	1840
